Data as given in patent US12414948B2, “Methods” (INTRA-CELLULAR THERAPIES, INC., priority 2022, dated 2025).

Legend:
[1] = test system: serum cytokines IL-1b, IL-6, TNF-alpha, IL-10; test: Serum cytokine protein (Multiplex MSD V-Plex) after LPS and lumateperone; assay type: in vivo, mouse; conditions: 2 h
Experimental: All other reagents are obtained in the highest purity available from Sigma-Aldrich (St. Louis, MO) unless otherwise noted. […] Some rodents are given a cotreatment with a subcutaneous (SC) injection of lipopolysaccharide (LPS, 500 μg/kg; Sigma-Aldrich, ref #0127:B8) diluted in 0.9% injectable saline while control group animals receive injections of all vehicles matching the experimental conditions. […] On day 2, either no injection for naïve rats, or saline or LPS is injected (1 mg/kg, SC).
Tissue Collection. […] Rats are euthanized 18 hours after LPS injection for sample collection. Hippocampi from mice and rats are rapidly dissected under RNAse-free conditions and placed in 1.5 mL Eppendorf tubes. When appropriate, samples are snap frozen in liquid nitrogen prior to storage at −80° C. until further analysis. Trunk blood is collected from mice into serum collection tubes, allowed to clot at room temperature for 1 hour, then centrifuged at 1,500 g for 10 minutes at 4° C.
Multiplex Assays. In mouse serum, protein levels of IL-1b, IL-6, IL-10 and TNF-alpha are measured using a V-Plex Meso Scale Discovery (MSD) Multiplex spot assay Mouse Neuroinflammation 1 panel (Meso Scale Diagnostics, Rockville, MD). All samples are run in duplicates or triplicates according to manufacturer instructions and analyzed with MSD Discovery Workbench software (Meso Scale Diagnostics).
An additional experimental group receiving an injection with lumateperone alone is included as an additional control. Protein concentration is measured using the Multiplex MSD assay V-Plex technology. Results are expressed in pg/mL, except for IL-6, which is measured in ng/mL.

[2] = test system: hippocampal microglia mRNA (Il1b, Il6, Tnfa, Nlrp3, Csf1r); test: mRNA (RT-qPCR) in microglia enriched from rat hippocampus after LPS; assay type: in vivo; conditions: rats, LPS 500 μg/kg; label LPS = LPS + vehicle, label Luma = Luma 3 mg/kg 16 h after LPS; microglia isolated +18 h; normalized to control (Dct)
Experimental: Microglia Enrichment. […] Brain tissue is then processed through a dounce homogenizer followed by passages through 16- and 20-gauge needles. One mL of medium A is added to wash cell suspension, which is passed through a […] cell strainer and kept on ice. Next, 6 mL of 100% Percoll solution (9 parts of Percoll [GE Healthcare, Chicago, IL] and 1 part of HBSS) is added to obtain a 75% Percoll solution. The 75% Percoll cell suspension is then underlaid a layer of 25% Percoll solution containing Phenol red, which has a layer of PBS on top. The discontinuous Percoll density gradient is layered as followed: 75%, 25%, and 0% isotonic Percoll (PBS) to isolate hippocampal microglia. The gradients are then centrifuged at 4° C. for 25 minutes at 3,000 rpm in swinging buckets with minimal acceleration and deceleration and no brake. After centrifugation, the top layer containing myelin and debris (interface PBS/25% Percoll) is removed and the cellular layer at the 25%/75% interphase is collected and washed. Pilot experiments compare the gene expression of the different fractions and validated the presence of microglia in the interphase layer. The final pellet is resuspended in 350 μL of Buffer RLT from Qiagen microkit (Qiagen) to perform RNA extraction according to the manufacturer's instructions.
Exploratory experiments reveal that in microglia-enriched fractions from rat hippocampi, inflammation is returned closer to background levels at +26 hours after a dose of LPS. Thus, an earlier time point of +18 h after the LPS injection is selected to assess potential changes indicative of inflammation.
Hippocampi on both sides of the brain are collected 2 hours later (+18 hour from LPS injection) and microglia are rapidly isolated in an enriched fraction by Percoll gradient. RNA is extracted from the resulting, reconstituted cell pellet and RT-qPCR is performed. The results are shown in Table 7 as relative change in mRNA levels for each cytokine gene (Il1b, Il6, Tnfa, Nlrp3, Csf1r) normalized to the control group using the Dct method (n=8-12 per group): […]

[3] = LPS 500 μg/kg-challenged mice, label LPS = LPS alone, label Luma = LPS + Luma 3 mg/kg IP

## lipopolysaccharide [LPS, reference compound]
[1]; [3]
  Serum cytokine concentration IL-1b: 6.27 pg/mL
  Serum cytokine concentration IL-6: 14.52 ng/mL
  Serum cytokine concentration IL-10: 980.4 pg/mL
  Serum cytokine concentration TNF-alpha: 335.3 pg/mL
[2]
  Hippocampal microglial cytokine mRNA expression IL-1b: 2.82
  Hippocampal microglial cytokine mRNA expression IL-6: 0.89
  Hippocampal microglial cytokine mRNA expression TNF-alpha: −0.28
  Hippocampal microglial mRNA expression Csf1R: 0.50
  Hippocampal microglial mRNA expression NLRP3: 0.71

## CN1CCN2c3c(cccc31)[C@@H]1CN(CCCC(=O)c3ccc(F)cc3)CC[C@@H]12 [Luma, lumateperone]
[1]; mice, Luma 3 mg/kg IP alone (no LPS)
  Serum cytokine concentration IL-6: 0.09 ng/mL
[2]
  Hippocampal microglial cytokine mRNA expression IL-1b: 0.38
  Hippocampal microglial cytokine mRNA expression IL-6: −0.22
  Hippocampal microglial cytokine mRNA expression TNF-alpha: −1.00
  Hippocampal microglial mRNA expression Csf1R: −0.05
  Hippocampal microglial mRNA expression NLRP3: −0.48
